Some test systems named below: SW-620; KM12; SF-539; SK-MEL-5; HL-60; SK-MEL-28; NCI-H226; K562; MDA-N; HCT-15; M14; HOP-92; MDA-MB-231; UACC-257; ACHN; RXF 393; SK-OV-3; SK-MEL-2; IGROV-1; SNB-75.
What all share (test): NCI-60 cell line screen, 48 h

The text below walks through data of ChEMBL document CHEMBL1201862, “PubChem BioAssay data set” (2004).

Each structure is given as a SMILES string.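 Cells were grown in 96-well plates and exposed to each compound for 48 hours at five concentrations; endpoints were interpolated linearly between bracketing concentrations, or set to the highest concentration if not reached. At the GI50, growth is halved.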 The source made the active and inactive calls. Rule as the data show it: active = GI50 up to about 1.1 µM and inactive = higher.

On to `COCOc1cc(OC)ccc1C/C=N/O`, for which the GI50 in the assay on SW-620, in the assay on KM12, with SF-539, in the assay on SK-MEL-5, in the assay with HL-60 and in the assay on SK-MEL-28 was > 100 µM (inactive) in each case. Besides, the GI50 in the assay with NCI-H226 was > 100 µM (inactive); in the assay on K562 it was > 100 µM (inactive); in the assay with MDA-N it was > 100 µM (inactive); in the assay on HCT-15 it was more than 100 µM; in the assay with M14 it was > 100 µM (inactive); in the assay on HOP-92, > 100 µM (inactive). Also, the GI50 in the assay on MDA-MB-231, with UACC-257, with ACHN, in the assay on RXF 393, with SK-OV-3 and in the assay with SK-MEL-2 was > 100 µM (inactive) each time. The GI50 in the assay with IGROV-1 is > 100 µM (inactive).
Regarding `O=C1CC(C(=O)O)Cc2c(Br)ccc(O)c21` (configuration not stated), the GI50 in the assay on KM12 is > 100 µM (inactive); in the assay with SK-MEL-5, > 100 µM (inactive); in the assay with HL-60, > 100 µM (inactive); in the assay with SK-MEL-28, > 100 µM (inactive); in the assay with NCI-H226, 95.9 µM (inactive); in the assay with K562, > 100 µM (inactive). The GI50 in the assay with MDA-N is > 100 µM (inactive); with HCT-15, more than 100 µM; in the assay on M14, > 100 µM (inactive); in the assay with HOP-92 it was 29 µM (inactive); with MDA-MB-231 it was > 100 µM (inactive); in the assay on UACC-257, > 100 µM (inactive). Moreover, the GI50 in the assay with ACHN, with RXF 393, in the assay on SK-OV-3, with SK-MEL-2 and in the assay with IGROV-1 was > 100 µM (inactive) each time.
In the case of `CC(=O)O[C@H]1CCC2[C@@H]3CCC4Nc5oncc5C[C@]4(C)C3CC[C@@]21C` (some centres not stated), the GI50 in the assay on SW-620 was > 10 µM (inactive); in the assay on KM12 it was > 10 µM (inactive); in the assay with SF-539, 3.94 µM (inactive); in the assay with SK-MEL-5 it was > 10 µM (inactive); in the assay with HL-60, 1.98 µM (inactive); with SK-MEL-28, > 10 µM (inactive). For the same molecule, the GI50 in the assay with NCI-H226 is > 10 µM (inactive); in the assay with K562, > 10 µM (inactive); in the assay with MDA-N it was > 10 µM (inactive); in the assay with HCT-15, more than 10 µM; in the assay on M14 it was > 10 µM (inactive); in the assay on HOP-92, > 10 µM (inactive). In addition, the GI50 in the assay with MDA-MB-231, in the assay on UACC-257, in the assay on ACHN, with RXF 393, in the assay with SK-OV-3 and with SK-MEL-2 was > 10 µM (inactive) throughout. The GI50 in the assay on IGROV-1 is > 10 µM (inactive).
Take `O=C(O)CN1C(=O)c2ccc(NC(=O)C(=O)O)cc2S1(=O)=O`: the GI50 with SW-620, in the assay with KM12, with SK-MEL-5, in the assay on HL-60, with SK-MEL-28 and in the assay on NCI-H226 was > 100 µM (inactive) throughout. For the same molecule, the GI50 with K562 is > 100 µM (inactive); in the assay on MDA-N, > 100 µM (inactive); in the assay on HCT-15, more than 100 µM; in the assay on M14 it was > 100 µM (inactive); with HOP-92, > 100 µM (inactive); with MDA-MB-231, > 100 µM (inactive). The GI50 in the assay with UACC-257, in the assay with ACHN, in the assay with RXF 393, in the assay on SK-OV-3, with SK-MEL-2 and in the assay with IGROV-1 was > 100 µM (inactive) each time.
On to `Cc1ccc(-n2cc(-c3ccc(Cl)cc3)c3c(NNC(=S)NCc4ccccc4)ncnc32)cc1`, for which the GI50 is 4.69 µM (inactive) in the assay with SW-620; 3.66 µM (inactive) in the assay on KM12; 13.6 µM (inactive) with SF-539; 5.09 µM (inactive) in the assay with SK-MEL-5; 6.98 µM (inactive) in the assay on HL-60; 16.1 µM (inactive) with SK-MEL-28. Further, the GI50 with NCI-H226 is 92.7 µM (inactive); with K562 it was 4.99 µM (inactive); in the assay on MDA-N it was 14.9 µM (inactive); in the assay on HCT-15 it was 6.08 µM; in the assay with M14, 10.5 µM (inactive); with HOP-92, 25.4 µM (inactive). For the same molecule, the GI50 with MDA-MB-231 is 17.8 µM (inactive); with UACC-257 it was 12.6 µM (inactive); in the assay with ACHN, 13.6 µM (inactive); with RXF 393, 14.3 µM (inactive); with SK-OV-3 it was 16.3 µM (inactive); with SK-MEL-2, 3.17 µM (inactive). In the assay with IGROV-1, the GI50 is 12.2 µM (inactive).
Turning to `O=c1[nH]nc(Cc2ccccc2)n1N=C1CCCCC1`, the GI50 with SW-620, in the assay with KM12, with SK-MEL-5, in the assay with HL-60, with SK-MEL-28 and in the assay with NCI-H226 was > 100 µM (inactive) throughout. For the same molecule, the GI50 is > 100 µM (inactive) in the assay with K562; > 100 µM (inactive) in the assay with MDA-N; more than 100 µM in the assay with HCT-15; > 100 µM (inactive) in the assay on M14; > 100 µM (inactive) in the assay with HOP-92; > 100 µM (inactive) in the assay on MDA-MB-231. The GI50 in the assay on UACC-257, with ACHN, in the assay with RXF 393, in the assay with SK-MEL-2 and with IGROV-1 was > 100 µM (inactive) each time.
In the case of `S=C=Nc1ccc(CSc2nc3ccccc3[nH]2)cc1`, the GI50 in the assay with SW-620 is 17.3 µM (inactive); in the assay with KM12, 17.5 µM (inactive); in the assay with SF-539 it was 18.8 µM (inactive); in the assay with SK-MEL-5, 15.9 µM (inactive); with HL-60 it was 36.5 µM (inactive); in the assay on SK-MEL-28, 18.7 µM (inactive). In addition, the GI50 is 39.4 µM (inactive) with K562; 15.9 µM (inactive) with MDA-N; 15 µM in the assay with HCT-15; 12.9 µM (inactive) with SNB-75; 16.8 µM (inactive) with HOP-92; 23.3 µM (inactive) in the assay on MDA-MB-231. Besides, the GI50 was 19.3 µM (inactive) in the assay on UACC-257; 14.3 µM (inactive) in the assay on ACHN; 16.4 µM (inactive) in the assay on RXF 393; 21.6 µM (inactive) in the assay on SK-OV-3; 18.9 µM (inactive) in the assay on SK-MEL-2; 18.2 µM (inactive) in the assay on IGROV-1.
As to `[O-][n+]1onc2c1/C(=N/O)CCC2`, the GI50 in the assay with SW-620, with KM12, in the assay on SF-539, in the assay on SK-MEL-5, in the assay on HL-60 and in the assay on SK-MEL-28 was > 100 µM (inactive) throughout. Moreover, the GI50 was > 100 µM (inactive) with NCI-H226; > 100 µM (inactive) in the assay with K562; > 100 µM (inactive) in the assay on MDA-N; more than 100 µM with HCT-15; > 100 µM (inactive) with SNB-75; > 100 µM (inactive) in the assay with M14. The GI50 with MDA-MB-231, in the assay with UACC-257, in the assay with ACHN, in the assay with RXF 393, with SK-OV-3 and with SK-MEL-2 was > 100 µM (inactive) each time. For the same molecule, the GI50 with IGROV-1 was > 100 µM (inactive).
Turning to `CCSc1[nH]c(Nc2nc(-c3ccccc3)n(-c3ccccc3)n2)c(C(N)=O)c1C(N)=O`, the GI50 in the assay on SW-620, in the assay on KM12, in the assay on SK-MEL-5, with HL-60, in the assay with SK-MEL-28 and with K562 was > 10 µM (inactive) each time. In addition, the GI50 in the assay with MDA-N is > 10 µM (inactive); in the assay with HCT-15, more than 10 µM; with SNB-75, 9.44 µM (inactive); with M14 it was > 10 µM (inactive); with HOP-92 it was > 10 µM (inactive); in the assay on MDA-MB-231, > 10 µM (inactive). The GI50 in the assay on UACC-257 was > 10 µM (inactive); with RXF 393, 6.5 µM (inactive); in the assay with SK-OV-3, > 10 µM (inactive); in the assay on IGROV-1, > 10 µM (inactive).
As to `C=C(CC(NC(=O)c1ccc(C(CC)Cc2cnc3nc(N)nc(N)c3n2)cc1)C(=O)O)C(=O)O` (configuration not stated), the GI50 with SW-620 was 0.0673 µM (active); in the assay with SF-539, 0.00319 µM (active); in the assay with SK-MEL-5, 0.0857 µM (active); in the assay on HL-60 it was 0.00376 µM (active); in the assay on SK-MEL-28, 0.209 µM (active); in the assay with NCI-H226 it was 0.0875 µM (active). The GI50 in the assay with K562 was 0.00185 µM (active); with MDA-N it was 0.0462 µM (active); in the assay on HCT-15 it was 0.00531 µM; in the assay on SNB-75, 0.154 µM (active); with M14 it was 0.02 µM (active); in the assay with MDA-MB-231, 0.0736 µM (active). Besides, the GI50 in the assay with UACC-257 was 0.839 µM (active); with ACHN, 0.0184 µM (active); in the assay on RXF 393, 0.237 µM (active); with SK-OV-3, 0.214 µM (active); with SK-MEL-2, 0.933 µM (active); in the assay with IGROV-1 it was 0.0274 µM (active).
As for `Cc1cc(O)c2c3c(ccc2c1)C(=O)c1c(O)cccc1C3=O` [TETRANGULOL], the GI50 was 3.88 µM (inactive) in the assay on KM12; 7.64 µM (inactive) in the assay on SF-539; 0.33 µM (active) in the assay on SK-MEL-5; 0.692 µM (active) in the assay on HL-60; > 100 µM (inactive) in the assay with SK-MEL-28; 18.6 µM (inactive) in the assay with K562. Besides, the GI50 was 0.188 µM (active) with MDA-N; 1.92 µM in the assay on HCT-15; 0.675 µM (active) in the assay on M14; > 100 µM (inactive) with HOP-92; 17.5 µM (inactive) in the assay on MDA-MB-231; 2.28 µM (inactive) in the assay with UACC-257. Moreover, the GI50 is 17.7 µM (inactive) in the assay on ACHN; > 100 µM (inactive) in the assay with RXF 393; > 83.2 µM (inactive) in the assay with SK-OV-3; 10.3 µM (inactive) in the assay with SK-MEL-2; 2.21 µM (inactive) in the assay with IGROV-1.
